# Values of other authors, collected in patent US20030219387A1, “Local delivery of agents for disruption and inhibition of bacterial biofilm for treatment of periodontal disease” (priority 2000, published 2003).
compound,measurement,setting,value
CC(=N)N1CC[C@H](Oc2ccc([C@H](Cc3ccc4ccc(C(=N)N)cc4c3)C(=O)O)cc2)C1 [DX-9065a],inhibition of gingipain,gingipain,can inhibit gingipain
same,reduction of P. gingivalis growth,P. gingivalis,selectively reduces P. gingivalis growth
